Columns and labels:
Assay in all cases: Bliss excess, mean over the matrix (fraction); higher = more synergy
[1] = tested on: SKN (Other Solid Carcinomas)
Outline: (§1)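 Cell lines in DMEM/F12 or RPMI with 10% FBS were plated in 1536-well plates, held 24 hours at 37°C, 5% CO2, then given two-drug dose matrices for 72 hours (DMSO typically 0.2%). Viability was read by CellTiter-Glo 2.0 luminescence and scaled as inhibition from 0 (vehicle wells) to 1 (blank wells). Combination Emax is the second-highest inhibition in the matrix; Bliss excess is observed combination effect minus expected EA + EB − EA·EB, EA and EB being single-agent effects.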

[2] = tested on: MOG-G-UVW (Low Grade Glioma)
Outline: as §1

[3] = tested on: NCI-H1993 (Lung Adenocarcinoma)
Outline: as §1

[4] = tested on: NCI-H1355 (Lung Adenocarcinoma)
Outline: as §1

[5] = tested on: EJM (Plasma Cell Myeloma)
Outline: as §1

[6] = tested on: MDA-MB-453 (Breast Carcinoma)
Outline: as §1

[7] = tested on: OACM5-1 (Esophageal Adenocarcinoma)
Outline: as §1

[8] = tested on: A4-Fuk (B-Lymphoblastic Leukemia)
Outline: as §1

[9] = tested on: COLO-668 (Small Cell Lung Carcinoma)
Outline: as §1

EW-1 (Ewing's Sarcoma) = tested on: EW-1 (Ewing's Sarcoma)
Outline: as §1

[10] = tested on: SNU-387 (Hepatocellular Carcinoma)
Outline: as §1

[11] = tested on: SK-LU-1 (Lung Adenocarcinoma)
Outline: as §1

[12] = tested on: CADO-ES1 (Ewing's Sarcoma)
Outline: as §1

[13] = tested on: KOPN-8 (B-Lymphoblastic Leukemia)
Outline: as §1

[14] = tested on: DU-145 (Prostate Carcinoma)
Outline: as §1

[15] = tested on: LC-1-sq (Squamous Cell Lung Carcinoma)
Outline: as §1

[16] = tested on: ALL-SIL (T-Lymphoblastic Leukemia)
Outline: as §1

[17] = tested on: G-401 (Other Solid Carcinomas)
Outline: as §1

[18] = tested on: EFO-21 (Ovarian Carcinoma)
Outline: as §1

[19] = tested on: NCI-H2122 (Lung Adenocarcinoma)
Outline: as §1

Row | Structure (SMILES) | Bliss excess [1] | Bliss excess [2] | Bliss excess [3] | Bliss excess [4] | Bliss excess [5] | Bliss excess [6] | Bliss excess [7] | Bliss excess [8] | Bliss excess [9] | Bliss excess (EW-1 (Ewing's Sarcoma)) | Bliss excess [10] | Bliss excess [11] | Bliss excess [12] | Bliss excess [13] | Bliss excess [14] | Bliss excess [15] | Bliss excess [16] | Bliss excess [17] | Bliss excess [18] | Bliss excess [19]
1 | C=CCn1c(=O)c2cnc(Nc3ccc(N4CCN(C)CC4)cc3)nc2n1-c1cccc(C(C)(C)O)n1 [AZD1775] + C1CN(CCC1(C(=O)N[C@@H](CCO)C2=CC=C(C=C2)Cl)N)C3=NC=NC4=C3C=CN4 [Capivasertib] (first compound max 3 µM, partner max 3 µM) | -0.0375 | -0.0039 | -0.0096 | 0.0046 | -0.0041 | -0.0524 | -0.0553 | -0.0977 | -0.0726 | 0.0379 | -0.0435 | 0.0164 | 0.006 | 0.0369 | -0.055 | -0.128 | -0.0129 | -0.0241 | -0.0991 | 0.0752
2 | C=CCn1c(=O)c2cnc(Nc3ccc(N4CCN(C)CC4)cc3)nc2n1-c1cccc(C(C)(C)O)n1 [AZD1775] + C[C@@H]1COCCN1C2=NC(=NC(=C2)C3(CC3)[S@](=N)(=O)C)C4=C5C=CNC5=NC=C4 [AZD6738] (first compound max 1 µM, partner max 10 µM) | -0.0185 | 0.0202 | -0.0727 | 0.0055 | -0.0079 | 0.0214 | 0.0994 | -0.0203 | 0.0917 | 0.0194 | -0.0302 | -0.0774 | 0.0441 | -0.0006 | 0.02 | 0.0139 | 0.044 | -0.0293 | -0.0492 | -0.0303
3 | COc1nnc2ccc(N3CCC(c4ccc(OCCN5CCN(C)C(=O)[C@H]5C)cc4)CC3)nn12 [AZD5153] + CC1(C)CCC(CN2CCN(c3ccc(C(=O)NS(=O)(=O)c4ccc(NCC5CCOCC5)c([N+](=O)[O-])c4)c(Oc4cnc5[nH]ccc5c4)c3)CC2)=C(c2ccc(Cl)cc2)C1 [Venetoclax] (first compound max 1 µM, 7x7, partner max 1 µM) | -0.0295 | -0.0315 | -0.0456 | -0.0243 | -0.0381 | -0.0381 | -0.0458 | -0.0678 | 0.0229 | -0.068 | -0.0699 | -0.118 | -0.088 | 0.0517 | -0.0181 | 0.0066 | 0.0565 | -0.0959 | -0.0464 | -0.041
4 | C=CCn1c(=O)c2cnc(Nc3ccc(N4CCN(C)CC4)cc3)nc2n1-c1cccc(C(C)(C)O)n1 [AZD1775] + O=C(c1cc(Cc2n[nH]c(=O)c3ccccc23)ccc1F)N1CCN(C(=O)C2CC2)CC1 [Olaparib] (first compound max 1 µM, partner max 10 µM) | -0.0048 | -0.0329 | -0.0631 | -0.0671 | -0.0429 | -0.0441 | -0.0363 | -0.0794 | 0.0104 | -0.0235 | -0.075 | -0.0306 | 0.0402 | -0.016 | -0.073 | -0.0216 | -0.0303 | -0.0999 | -0.0266 | -0.0522
5 | COc1nnc2ccc(N3CCC(c4ccc(OCCN5CCN(C)C(=O)[C@H]5C)cc4)CC3)nn12 [AZD5153] + Cn1cnc2c(F)c(Nc3ccc(Br)cc3Cl)c(C(=O)NOCCO)cc21 [Selumetinib] (first compound max 1 µM, 7x7, partner max 10 µM) | -0.0084 | -0.0045 | -0.0228 | 0.0212 | 0.0207 | -0.0141 | -0.0306 | -0.0175 | 0.236 | 0.041 | 0.0012 | 0.0022 | -0.0469 | 0.114 | 0.0192 | 0.0073 | -0.0303 | -0.0761 | -0.0593 | 0.0659
6 | NC1(C(=O)N[C@@H](CCO)c2ccc(Cl)cc2)CCN(c2ncnc3[nH]ccc23)CC1 [Capivasertib] + C[C@@H]1COCCN1C2=NC(=NC(=C2)C3(CC3)[S@](=N)(=O)C)C4=C5C=CNC5=NC=C4 [AZD6738] (first compound max 10 µM, 7x7, partner max 10 µM) | -0.0477 | -0.0348 | -0.0598 | -0.0317 | 0.0305 | -0.0798 | 0.0338 | -0.0841 | -0.0501 | 0.0229 | -0.0613 | -0.0162 | -0.0284 | -0.0253 | -0.0128 | -0.0984 | -0.0322 | -0.0856 | -0.0322 | -0.0658
